# In patent US10870647B2, “Imidazopyridine derivative, method for preparing same, and pharmaceutical composition containing same as active ingredient for preventing or treating cancer” (DAEGU-GYEONGBUK MEDICAL INNOVATION FOUNDATION, priority 2016, dated 2020):
# Like-named read-outs stand apart in the source and are kept apart here.
# Key:
# Experiment in all cases: Kinase selectivity, scanMAX Kinase assay panel (DiscoverX), % control at 1 uM
# Type in all cases: binding
# [1] = target: T1, scanMAX Kinase assay panel (Homo sapiens, UniProt P00533, L861Q); conditions: EGFR (L861Q); 1 uM; read-out: Percent Control (%)
# T1 construct: purchased DiscoverX
# In short: (§1)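 Read-out is percent of control, derived from the signal with compound relative to positive and negative controls: (compound − positive)/(negative − positive) × 100. Each enzyme received test drug at 1 uM in DMSO, and values under 35% count as active.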
# [2] = target: T2, scanMAX Kinase assay panel (Homo sapiens, UniProt Q9H2X6); conditions: HIPK2; 1 uM; read-out: Percent Control (%)
# T2 construct: purchased DiscoverX
# In short: as §1
# [3] = target: T3, scanMAX Kinase assay panel (Homo sapiens, UniProt Q13131); conditions: AMPK-alpha1; 1 uM; read-out: Percent Control (%)
# T3 construct: purchased DiscoverX
# T3 sequence (Q13131 whole entry): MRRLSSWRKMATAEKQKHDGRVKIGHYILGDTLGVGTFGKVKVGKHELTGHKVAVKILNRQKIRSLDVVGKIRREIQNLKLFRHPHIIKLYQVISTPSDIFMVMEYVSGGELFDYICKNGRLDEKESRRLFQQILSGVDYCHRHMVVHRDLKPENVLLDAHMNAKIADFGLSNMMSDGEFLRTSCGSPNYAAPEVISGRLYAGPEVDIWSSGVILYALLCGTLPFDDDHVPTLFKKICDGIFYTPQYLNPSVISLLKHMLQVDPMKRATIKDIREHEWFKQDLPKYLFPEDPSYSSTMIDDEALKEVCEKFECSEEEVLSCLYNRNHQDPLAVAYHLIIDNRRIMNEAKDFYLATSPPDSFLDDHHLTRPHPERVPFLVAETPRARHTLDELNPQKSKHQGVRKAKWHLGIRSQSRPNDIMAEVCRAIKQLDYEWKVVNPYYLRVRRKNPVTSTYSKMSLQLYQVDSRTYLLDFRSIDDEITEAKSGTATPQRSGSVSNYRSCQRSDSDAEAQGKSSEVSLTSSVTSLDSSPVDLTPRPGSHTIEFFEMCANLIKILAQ
# In short: as §1
# [4] = target: T4, scanMAX Kinase assay panel (Homo sapiens, UniProt Q00532); conditions: CDKL1; 1 uM; read-out: Percent Control (%)
# T4 construct: purchased DiscoverX
# T4 sequence (Q00532 whole entry): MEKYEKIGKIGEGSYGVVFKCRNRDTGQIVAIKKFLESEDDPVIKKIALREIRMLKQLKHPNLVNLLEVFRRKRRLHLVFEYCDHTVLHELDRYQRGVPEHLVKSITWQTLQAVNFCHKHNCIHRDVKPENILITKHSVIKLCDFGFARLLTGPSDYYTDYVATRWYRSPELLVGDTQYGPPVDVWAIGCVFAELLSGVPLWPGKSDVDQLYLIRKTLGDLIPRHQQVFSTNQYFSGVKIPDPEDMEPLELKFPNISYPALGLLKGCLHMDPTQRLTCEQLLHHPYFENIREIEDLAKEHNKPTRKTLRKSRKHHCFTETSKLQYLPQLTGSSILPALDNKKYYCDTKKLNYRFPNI
# In short: as §1
# [5] = target: T5, scanMAX Kinase assay panel (Homo sapiens, UniProt P36888); conditions: 1 uM, read-out: Percent Control (%)
# T5 construct: purchased DiscoverX
# T5 sequence (P36888 27-993): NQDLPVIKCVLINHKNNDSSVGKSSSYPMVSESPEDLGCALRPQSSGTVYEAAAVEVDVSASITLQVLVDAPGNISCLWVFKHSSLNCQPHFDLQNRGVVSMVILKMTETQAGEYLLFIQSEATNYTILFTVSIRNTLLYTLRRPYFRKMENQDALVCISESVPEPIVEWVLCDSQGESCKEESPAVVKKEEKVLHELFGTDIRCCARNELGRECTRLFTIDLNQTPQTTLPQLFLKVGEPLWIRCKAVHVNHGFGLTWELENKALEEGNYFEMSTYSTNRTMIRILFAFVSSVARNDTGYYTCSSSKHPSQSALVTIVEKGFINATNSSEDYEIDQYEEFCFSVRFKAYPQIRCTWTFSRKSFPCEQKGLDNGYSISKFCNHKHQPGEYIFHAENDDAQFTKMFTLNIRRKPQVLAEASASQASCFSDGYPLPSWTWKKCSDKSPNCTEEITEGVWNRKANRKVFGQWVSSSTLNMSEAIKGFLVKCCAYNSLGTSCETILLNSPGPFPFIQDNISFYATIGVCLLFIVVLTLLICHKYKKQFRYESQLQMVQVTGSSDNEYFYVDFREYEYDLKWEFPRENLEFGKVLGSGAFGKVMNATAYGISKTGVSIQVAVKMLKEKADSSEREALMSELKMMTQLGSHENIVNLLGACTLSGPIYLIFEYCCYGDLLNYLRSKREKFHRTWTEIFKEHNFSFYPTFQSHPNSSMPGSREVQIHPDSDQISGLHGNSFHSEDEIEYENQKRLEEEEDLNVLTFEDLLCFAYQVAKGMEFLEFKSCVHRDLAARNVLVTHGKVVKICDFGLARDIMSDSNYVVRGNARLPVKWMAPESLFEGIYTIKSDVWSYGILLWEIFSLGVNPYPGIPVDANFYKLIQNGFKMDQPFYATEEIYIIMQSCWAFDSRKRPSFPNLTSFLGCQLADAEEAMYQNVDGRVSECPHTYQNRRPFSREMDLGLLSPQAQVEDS
# In short: as §1
# [6] = target: T6, scanMAX Kinase assay panel (Homo sapiens, UniProt Q14680); conditions: MELK; 1 uM; read-out: Percent Control (%)
# T6 construct: purchased DiscoverX
# T6 sequence (Q14680 whole entry): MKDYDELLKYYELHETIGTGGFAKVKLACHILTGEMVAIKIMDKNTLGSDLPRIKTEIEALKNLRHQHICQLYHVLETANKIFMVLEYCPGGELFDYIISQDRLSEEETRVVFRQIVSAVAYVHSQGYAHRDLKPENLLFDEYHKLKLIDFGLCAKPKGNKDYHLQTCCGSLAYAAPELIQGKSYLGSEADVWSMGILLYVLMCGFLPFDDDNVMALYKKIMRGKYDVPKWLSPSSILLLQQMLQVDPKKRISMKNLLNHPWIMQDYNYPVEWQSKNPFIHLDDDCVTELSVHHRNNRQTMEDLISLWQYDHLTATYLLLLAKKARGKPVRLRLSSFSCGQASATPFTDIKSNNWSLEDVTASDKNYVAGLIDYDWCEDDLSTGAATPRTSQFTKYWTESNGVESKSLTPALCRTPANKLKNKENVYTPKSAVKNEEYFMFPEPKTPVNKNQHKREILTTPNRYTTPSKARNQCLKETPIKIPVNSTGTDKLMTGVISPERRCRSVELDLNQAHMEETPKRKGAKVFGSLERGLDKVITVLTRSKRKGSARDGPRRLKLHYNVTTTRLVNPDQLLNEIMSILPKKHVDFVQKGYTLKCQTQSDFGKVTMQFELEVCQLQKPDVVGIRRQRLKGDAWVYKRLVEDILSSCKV
# In short: as §1
# [7] = target: T7, scanMAX Kinase assay panel (Homo sapiens, UniProt Q9UK32); conditions: 1 uM, read-out: Percent Control (%)
# T7 construct: purchased DiscoverX
# T7 sequence (Q9UK32 whole entry): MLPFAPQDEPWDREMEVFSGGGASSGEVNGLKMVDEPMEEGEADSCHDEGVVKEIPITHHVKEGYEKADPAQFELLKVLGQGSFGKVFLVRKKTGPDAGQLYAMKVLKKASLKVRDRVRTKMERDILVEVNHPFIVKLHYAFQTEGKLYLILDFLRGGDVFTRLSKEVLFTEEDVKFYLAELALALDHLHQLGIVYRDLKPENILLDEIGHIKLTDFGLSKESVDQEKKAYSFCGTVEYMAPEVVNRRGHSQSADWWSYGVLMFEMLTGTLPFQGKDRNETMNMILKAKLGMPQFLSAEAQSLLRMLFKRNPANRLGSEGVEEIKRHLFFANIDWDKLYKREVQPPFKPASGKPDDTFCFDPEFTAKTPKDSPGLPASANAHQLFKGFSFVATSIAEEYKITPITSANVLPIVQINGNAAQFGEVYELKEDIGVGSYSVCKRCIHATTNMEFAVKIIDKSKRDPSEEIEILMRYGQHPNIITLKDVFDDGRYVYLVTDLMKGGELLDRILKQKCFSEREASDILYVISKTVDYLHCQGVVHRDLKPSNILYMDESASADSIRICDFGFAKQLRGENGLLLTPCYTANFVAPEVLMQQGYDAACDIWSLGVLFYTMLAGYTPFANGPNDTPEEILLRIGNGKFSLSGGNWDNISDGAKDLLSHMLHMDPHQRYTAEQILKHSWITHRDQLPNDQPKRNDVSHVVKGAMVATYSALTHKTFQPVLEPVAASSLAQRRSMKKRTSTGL
# In short: as §1
# [8] = target: T8, scanMAX Kinase assay panel (Homo sapiens, UniProt P07947); conditions: YES; 1 uM; read-out: Percent Control (%)
# T8 construct: purchased DiscoverX
# T8 sequence (P07947 whole entry): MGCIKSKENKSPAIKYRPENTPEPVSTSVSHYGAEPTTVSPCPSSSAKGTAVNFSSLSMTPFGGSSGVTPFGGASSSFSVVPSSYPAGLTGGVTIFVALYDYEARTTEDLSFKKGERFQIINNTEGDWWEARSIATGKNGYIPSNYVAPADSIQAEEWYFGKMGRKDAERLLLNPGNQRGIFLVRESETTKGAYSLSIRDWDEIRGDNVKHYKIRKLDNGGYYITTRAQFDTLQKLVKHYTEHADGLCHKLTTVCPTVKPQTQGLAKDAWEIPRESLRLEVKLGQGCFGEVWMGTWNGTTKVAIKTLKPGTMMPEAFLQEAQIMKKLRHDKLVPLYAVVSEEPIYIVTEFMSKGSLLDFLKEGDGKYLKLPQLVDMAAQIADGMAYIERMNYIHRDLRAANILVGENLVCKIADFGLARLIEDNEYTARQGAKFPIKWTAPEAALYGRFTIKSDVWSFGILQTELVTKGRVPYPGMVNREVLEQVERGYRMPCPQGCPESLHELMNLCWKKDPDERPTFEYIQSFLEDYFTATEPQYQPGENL
# In short: as §1
# [9] = target: T9, scanMAX Kinase assay panel (Homo sapiens, UniProt Q6XUX3); conditions: RIPK5; 1 uM; read-out: Percent Control (%)
# T9 construct: purchased DiscoverX
# T9 sequence (Q6XUX3 1-929): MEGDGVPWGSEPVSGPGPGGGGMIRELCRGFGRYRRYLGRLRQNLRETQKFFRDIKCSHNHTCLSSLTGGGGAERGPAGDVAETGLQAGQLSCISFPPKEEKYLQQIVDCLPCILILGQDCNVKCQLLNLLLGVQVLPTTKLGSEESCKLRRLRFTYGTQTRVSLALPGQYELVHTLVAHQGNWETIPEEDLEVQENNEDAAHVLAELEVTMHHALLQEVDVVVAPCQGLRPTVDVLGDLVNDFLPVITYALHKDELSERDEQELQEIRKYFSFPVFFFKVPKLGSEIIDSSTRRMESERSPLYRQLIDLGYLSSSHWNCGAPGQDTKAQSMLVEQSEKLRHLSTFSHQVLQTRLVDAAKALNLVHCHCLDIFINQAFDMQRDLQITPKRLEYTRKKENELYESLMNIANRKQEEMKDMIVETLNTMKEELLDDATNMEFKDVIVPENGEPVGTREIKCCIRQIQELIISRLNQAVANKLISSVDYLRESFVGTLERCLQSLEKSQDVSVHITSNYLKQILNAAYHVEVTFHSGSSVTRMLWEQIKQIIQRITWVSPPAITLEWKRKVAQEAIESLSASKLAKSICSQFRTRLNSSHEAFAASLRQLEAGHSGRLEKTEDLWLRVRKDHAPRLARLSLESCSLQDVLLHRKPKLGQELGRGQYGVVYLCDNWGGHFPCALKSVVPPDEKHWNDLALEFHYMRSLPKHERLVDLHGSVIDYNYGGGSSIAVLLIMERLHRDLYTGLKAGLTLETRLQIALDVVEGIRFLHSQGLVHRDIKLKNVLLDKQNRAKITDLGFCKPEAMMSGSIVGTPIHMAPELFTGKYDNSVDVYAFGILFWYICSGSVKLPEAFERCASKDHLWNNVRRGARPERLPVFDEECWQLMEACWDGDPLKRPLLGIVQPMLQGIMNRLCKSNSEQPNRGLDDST
# In short: as §1
# [10] = target: T10, scanMAX Kinase assay panel (Homo sapiens, UniProt Q9Y2I7); conditions: PIKFYVE; 1 uM; read-out: Percent Control (%)
# T10 construct: purchased DiscoverX
# T10 sequence (Q9Y2I7 whole entry): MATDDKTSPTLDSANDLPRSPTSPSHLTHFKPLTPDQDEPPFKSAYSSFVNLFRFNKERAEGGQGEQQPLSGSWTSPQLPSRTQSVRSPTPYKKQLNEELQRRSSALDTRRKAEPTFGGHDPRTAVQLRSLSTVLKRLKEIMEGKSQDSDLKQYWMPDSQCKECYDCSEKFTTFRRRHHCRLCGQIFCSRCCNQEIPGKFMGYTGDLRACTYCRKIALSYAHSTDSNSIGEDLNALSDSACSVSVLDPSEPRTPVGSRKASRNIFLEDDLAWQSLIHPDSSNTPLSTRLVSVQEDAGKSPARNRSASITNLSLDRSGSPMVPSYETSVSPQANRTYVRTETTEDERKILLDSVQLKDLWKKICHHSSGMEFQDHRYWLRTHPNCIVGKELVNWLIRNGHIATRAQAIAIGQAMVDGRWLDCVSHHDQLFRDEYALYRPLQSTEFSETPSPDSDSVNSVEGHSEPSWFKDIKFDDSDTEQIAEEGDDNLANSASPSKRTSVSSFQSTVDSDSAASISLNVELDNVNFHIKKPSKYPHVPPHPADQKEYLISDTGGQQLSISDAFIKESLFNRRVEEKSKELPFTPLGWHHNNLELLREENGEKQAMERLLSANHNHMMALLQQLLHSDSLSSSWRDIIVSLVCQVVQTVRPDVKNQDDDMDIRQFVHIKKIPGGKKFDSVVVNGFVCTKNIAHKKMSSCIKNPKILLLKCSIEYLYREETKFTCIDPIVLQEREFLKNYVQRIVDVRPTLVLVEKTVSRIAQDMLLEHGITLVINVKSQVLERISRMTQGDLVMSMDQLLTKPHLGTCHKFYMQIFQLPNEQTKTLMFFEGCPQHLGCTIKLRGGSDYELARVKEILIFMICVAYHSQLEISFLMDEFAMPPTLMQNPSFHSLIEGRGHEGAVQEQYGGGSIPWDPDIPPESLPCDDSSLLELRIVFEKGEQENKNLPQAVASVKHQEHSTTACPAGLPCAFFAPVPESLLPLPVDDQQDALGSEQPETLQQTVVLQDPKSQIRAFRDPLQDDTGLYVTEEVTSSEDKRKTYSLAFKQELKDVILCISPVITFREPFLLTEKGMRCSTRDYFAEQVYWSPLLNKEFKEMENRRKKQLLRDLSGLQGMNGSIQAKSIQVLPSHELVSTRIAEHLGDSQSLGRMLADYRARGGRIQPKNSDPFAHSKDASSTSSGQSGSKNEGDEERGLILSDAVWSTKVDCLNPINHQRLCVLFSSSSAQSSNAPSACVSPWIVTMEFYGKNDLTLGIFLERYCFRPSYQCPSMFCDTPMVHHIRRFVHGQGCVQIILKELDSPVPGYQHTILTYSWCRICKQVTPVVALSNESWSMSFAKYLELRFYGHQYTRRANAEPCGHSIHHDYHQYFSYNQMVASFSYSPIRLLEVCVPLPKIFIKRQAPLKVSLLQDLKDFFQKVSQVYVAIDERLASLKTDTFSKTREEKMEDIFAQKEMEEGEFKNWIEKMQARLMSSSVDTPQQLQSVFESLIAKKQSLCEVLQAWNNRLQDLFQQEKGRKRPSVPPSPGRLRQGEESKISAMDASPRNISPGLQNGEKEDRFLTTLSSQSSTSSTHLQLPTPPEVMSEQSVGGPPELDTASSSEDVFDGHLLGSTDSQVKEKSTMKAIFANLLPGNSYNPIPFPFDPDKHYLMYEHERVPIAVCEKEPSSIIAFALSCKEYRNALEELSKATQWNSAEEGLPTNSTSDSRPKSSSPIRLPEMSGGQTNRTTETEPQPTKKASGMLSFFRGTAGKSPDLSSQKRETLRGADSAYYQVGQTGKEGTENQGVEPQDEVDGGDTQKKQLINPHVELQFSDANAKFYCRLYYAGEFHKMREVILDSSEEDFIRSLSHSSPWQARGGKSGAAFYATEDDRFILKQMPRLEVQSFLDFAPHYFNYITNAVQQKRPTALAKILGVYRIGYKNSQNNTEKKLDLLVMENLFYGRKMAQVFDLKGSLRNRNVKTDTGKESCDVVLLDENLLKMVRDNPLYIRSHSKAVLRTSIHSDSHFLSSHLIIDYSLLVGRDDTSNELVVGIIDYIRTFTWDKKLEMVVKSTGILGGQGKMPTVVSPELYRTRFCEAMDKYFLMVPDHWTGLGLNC
# In short: as §1
SMILES,remaining binding at 1 µM [1] [%],remaining binding at 1 µM [2] [%],remaining binding at 1 µM [3] [%],remaining binding at 1 µM [4] [%],remaining binding at 1 µM ([5]; FLT3-autoinhibited) [%],remaining binding at 1 µM ([5]; FLT3) [%],remaining binding at 1 µM [6] [%],remaining binding at 1 µM ([7]; RSK4 (Kin.Dom.1-N-terminal)) [%],remaining binding at 1 µM ([7]; RSK4 (Kin.Dom.2-C-terminal)) [%],remaining binding at 1 µM [8] [%],remaining binding at 1 µM [9] [%],remaining binding at 1 µM [10] [%]
Cc1ccc(NC(=O)C2(C(=O)Nc3ccc(F)cc3)CC2)cc1C#Cc1cnc2c(Nc3cnn(C(C)C)c3)cccn12 [Example 78],92,100,100,83,100,42,91,93,98,100,79,91
"Cc1cn(-c2cc(NC(=O)c3ccc(C)c(C#Cc4cnc5c(Nc6cnn(C)c6)cccn45)c3)cc(C(F)(F)F)c2)cn1 [Example 12, 4-methyl-N-(3-(4-methyl-1H-imidazol-1-yl)-5-(trifluoromethyl)phenyl)-3-((8-((1-methyl-1H-pyrazol-4-yl)amino)imidazo[1,2-a]pyridin-3-yl)ethynyl)benzamide]",22,100,74,60,100,4,98,93,68,2,100,65
"Cc1ccc(C(=O)Nc2ccc(CN3CCN(C)CC3)c(C(F)(F)F)c2)cc1C#Cc1cnc2c(Nc3cnn(C)c3)cccn12 [Example 1, 4-methyl-3-((8-((1-methyl-1H-pyrazol-4-yl)amino)imidazo[1,2-a]pyridin-3-yl)ethynyl)-N-(4-((4-methylpiperazin-1-yl)methyl)-3-(trifluoromethyl)phenyl)benzamide]",1,61,7,25,46,1,9,81,59,1,41,84
